Measurements reported in PubChem BioAssay AID1648 (Sanford-Burnham Center for Chemical Genomics, 2009).
The source made the active and inactive calls. How the calls were made is not given here. Residues, ends and D or L forms follow the SMILES beside them.

Target: Serine/threonine-protein kinase mTOR (Homo sapiens) (UniProt P42345)
Assay: binders of mTOR FRB domain, biophysical, NMR (AID 1648)
Conditions: NMR binding to FRB domain, chemical shift

Sequence of Serine/threonine-protein kinase mTOR (Homo sapiens) (P42345 2015-2114): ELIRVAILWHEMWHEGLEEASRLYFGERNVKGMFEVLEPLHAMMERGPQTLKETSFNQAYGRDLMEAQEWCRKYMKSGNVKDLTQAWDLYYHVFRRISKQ

| Compound | Kd |
| --- | --- |
| CCn1cnc2sc(C(=O)O)c(C)c2c1=O | > 4 mM (inactive) |
| COc1c2c(c(CC=C(C)C)c3oc(=O)c(-c4ccc(O)cc4)c(O)c13)OC(C)(C)C=C2 | > 4 mM (inactive) |
| NC(=O)c1cccc2c1OCCO2 | > 4 mM (inactive) |
| Cc1nn(-c2ccccc2)nc1CO | > 4 mM (inactive) |
| OCc1ccc2c(c1)OCCCO2 | > 4 mM (inactive) |
| COc1nc(-c2ccccc2)ccc1-c1noc(C)n1 | > 4 mM (inactive) |
| CC1(C)N=C2C(=N)C=CC=C2N1O | > 4 mM (inactive) |
| COC(=O)[C@]1(C)CC[C@]2(C)CC[C@]3(C)C4=CCc5c(cc(O)c(O)c5C)[C@]4(C)CC[C@@]3(C)C2C1 (stereo partly specified) | > 4 mM (inactive) |
| Cc1c(N=CN(C)C)c(=O)n(-c2ccccc2)n1C | > 4 mM (inactive) |
| CN=C(c1ccc([N+](=O)[O-])cc1)N(C)C | > 4 mM (inactive) |
| COc1ccc2c(=O)c(CC(=O)O)coc2c1 | > 4 mM (inactive) |
| OCc1ccc2nonc2c1 | > 4 mM (inactive) |
| CC(=O)N[C@@H](CC(=O)O)C(=O)N[C@@H](CCC(=O)O)C(=O)O (Ac-Asp-Glu-OH) | > 4 mM (inactive) |
| CC(=O)Nc1cc(C(F)(F)F)ccc1N1CCOCC1 | > 4 mM (inactive) |
| Nc1cc(F)cc(F)c1 | > 4 mM (inactive) |
| S=C(c1ccc2c(c1)OCO2)N1CCCC1 | > 4 mM (inactive) |
| O=c1cnnc(SCCc2ccccc2)[nH]1 | > 4 mM (inactive) |
| COn1c(=O)c(C)[n+]([O-])c2ccccc21 | > 4 mM (inactive) |
| COC(=O)c1cc(C)on1 | > 4 mM (inactive) |
| CSc1nnc(-c2ccccc2NC(C)=O)o1 | > 4 mM (inactive) |
| O=C1CCC(=O)N1c1ccc(F)cc1 | > 4 mM (inactive) |

| Compound | Kd |
| --- | --- |
| O=C(Nc1ccccc1[N+](=O)[O-])c1ccc(=O)[nH]n1 | > 4 mM (inactive) |
| O=C(O)c1cnc2sc3ccccc3n2c1=O | > 4 mM (inactive) |
| CNc1ccccc1C(=O)O | > 4 mM (inactive) |
| O=C(c1cc(Cl)cc(Cl)c1)N1CCOCC1 | > 4 mM (inactive) |
| NC(=S)CN1CCCC1=O | > 4 mM (inactive) |
| O=[n+]1c2c(n([O-])c3ccccc31)CCCC2 | > 4 mM (inactive) |
| COc1ccc(-c2noc(-c3ccco3)n2)cc1OC | > 4 mM (inactive) |
| Cc1cc(N)on1 | > 4 mM (inactive) |
| c1ccc2[nH]c(CCn3cncn3)nc2c1 | > 4 mM (inactive) |
| O=C1NC(=S)N/C1=C/c1ccc(O)c(Cl)c1 | > 4 mM (inactive) |
| NCc1ccc2occc2c1 | > 4 mM (inactive) |
| Nc1ccc2c(C(F)(F)F)cc(=O)oc2c1 | > 4 mM (inactive) |
| O=CN1CCN(C(=O)c2ccco2)CC1 | > 4 mM (inactive) |
| COc1ccc(C(=O)CC(=O)O)c2c1C=CC(C)(C)O2 | > 4 mM (inactive) |
| Cc1ccc2nc(NC(=O)CN3CCOCC3)sc2c1 | > 4 mM (inactive) |
| O=C(Cc1ccccc1)Nc1c[nH]c(=O)[nH]c1=O | > 4 mM (inactive) |
| O=c1[nH]cnc2c1nnn2Cc1ccccc1 | > 4 mM (inactive) |
| CNC(=S)Nc1ncn(Cc2cccc(F)c2)n1 | > 4 mM (inactive) |
| NC(=O)N1CCc2ccccc21 | > 4 mM (inactive) |
| O=C1CCCc2c(O)cccc21 | > 4 mM (inactive) |
| NCC(=O)c1ccccc1 | > 4 mM (inactive) |

| Compound | Kd |
| --- | --- |
| CN1C(=O)c2ccc(N3CCCC3)cc2C1=O | > 4 mM (inactive) |
| Cc1ccc(O)c(NC(=O)c2ccco2)c1 | > 4 mM (inactive) |
| Cc1ccn(S(=O)(=O)c2ccc(C(C)(C)C)cc2)n1 | > 4 mM (inactive) |
| CCC(C)C(=O)c1c(O)c(C)c2oc3c(C)c(O)c(C(=O)C(C)CC)c(O)c3c2c1O (stereo unspecified) | > 4 mM (inactive) |
| Cc1cc(C)n(S(=O)(=O)c2ccc(C)c(C)c2C)n1 | > 4 mM (inactive) |
| CC(=O)N/N=C(\C)c1cccc(N)c1 | > 4 mM (inactive) |
| O=C(O)c1ccc(Oc2ccccc2)nc1 | > 4 mM (inactive) |
| COC(=O)[C@@H]1OC(=O)[C@H]2O[C@@]23[C@@]1(C)CCC1[C@@]2(C)CCC(=O)C(C)(C)C2C[C@@H](OC(C)=O)[C@]13C (stereo partly specified) | > 4 mM (inactive) |
| N#Cc1sc2nc3c(c(-c4cccnc4)c2c1N)CCC3 | > 4 mM (inactive) |
| Cc1oc(-c2ccccc2)cc1C(=O)O | > 4 mM (inactive) |
| Cc1cc(=O)oc2cc3c(cc12)OCCO3 | > 4 mM (inactive) |
| COc1cc(OC)c2c(=O)c(O)c(-c3ccc(OC)c(OC)c3)oc2c1 | > 4 mM (inactive) |
| CC(C)CCCC(C)[C@H]1CCC2C3CC=C4CC(=O)CC[C@]4(C)C3CC[C@@]21C (stereo partly specified) | > 4 mM (inactive) |
| NCc1ccc(-c2ccccn2)s1 | > 4 mM (inactive) |
| CNC(=S)Nc1cccc(C(=O)O)c1 | > 4 mM (inactive) |
| Cc1ccc(SCC(=O)N2CCOCC2)cc1 | > 4 mM (inactive) |
| CN1C(=O)N(C)C2NC(=O)NC21 (stereo unspecified) | > 4 mM (inactive) |
| S=C(c1ccc(N2CCOCC2)cc1)N1CCCCC1 | > 4 mM (inactive) |
| CS(=O)(=O)c1ccc(N)cc1 | > 4 mM (inactive) |
